Legend:
CLK2 kinase = CLK2 kinase (Homo sapiens, UniProt P49760); test: CLK2 kinase activity assay (Z-lyte FRET); format: biochemical; details: Z-lyte Ser/Thr 6 peptide, 60 μM ATP, 1 h at room temperature;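 further: FRET read-out as coumarin to fluorescein emission ratio, unphosphorylated peptide as 0% and phosphorylated peptide as 100% controls, duplicate reactions, non-linear regression fit of dose-response curves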
CLK3 kinase = CLK3 kinase (Homo sapiens, UniProt P49761); test: CLK3 kinase activity assay (Z-lyte FRET); format: biochemical; details: Z-lyte Ser/Thr 18 peptide, 156 μM ATP, 1 h at room temperature;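 further: kinase activity read as coumarin/fluorescein emission ratio by FRET, unphosphorylated peptide as 0% and phosphorylated peptide as 100% control, values from non-linear regression of dose-response curves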
[1] = tested on: primary human mesenchymal stem cells (hMSCs); test: Chondrogenesis screening using primary human mesenchymal stem cells; format: cell-based; details: Homo sapiens, Mesenchymal stem cells, hMSC chondrogenesis; for EC50: concentration required to induce 50% levels of chondrogenesis with TGF-β3 as positive control, read-out: Conc (nM) of 50% TGF-β3 activity; for Emax: maximum activity relative to TGF-β3 (10 ng/mL) positive control, read-out: Max. Activity as % TGF-β3 activity
How it was run: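 Derived values are EC50 for 50% chondrogenesis, maximal activity and the dose giving it. These come from nodule area in passage 3–6 primary hMSCs, expressed as fold change over the mean of 3 same-plate DMSO wells, 2–3 replicates per concentration. TGF-β3 served as positive control.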

[2] = tested on: Wnt pathway activity (SW480 colon carcinoma cells stably expressing the Sp5-Luc reporter); test: Wnt pathway activity screening assay (Sp5-Luc reporter gene assay); details: Homo sapiens, SW480, Table 4; SW480 cells stably expressing Sp5-Luc reporter, 10-point dose-response from 10 μM, 36 to 48 hours

Sequence of CLK2 kinase (P49760 whole entry): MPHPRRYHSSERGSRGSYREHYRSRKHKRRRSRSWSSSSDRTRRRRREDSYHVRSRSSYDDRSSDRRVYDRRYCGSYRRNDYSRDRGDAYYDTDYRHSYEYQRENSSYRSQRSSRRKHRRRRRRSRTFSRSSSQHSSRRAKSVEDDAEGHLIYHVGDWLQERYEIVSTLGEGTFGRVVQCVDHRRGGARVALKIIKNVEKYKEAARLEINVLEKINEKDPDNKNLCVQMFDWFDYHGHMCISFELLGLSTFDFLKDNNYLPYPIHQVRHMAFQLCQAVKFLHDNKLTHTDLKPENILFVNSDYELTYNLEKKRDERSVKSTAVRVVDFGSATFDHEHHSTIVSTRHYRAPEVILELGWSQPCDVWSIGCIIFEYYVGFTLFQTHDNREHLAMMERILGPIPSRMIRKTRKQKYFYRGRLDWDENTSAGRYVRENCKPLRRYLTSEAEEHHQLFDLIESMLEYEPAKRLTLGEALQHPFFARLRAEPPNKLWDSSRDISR
Sequence of CLK3 kinase (P49761 whole entry): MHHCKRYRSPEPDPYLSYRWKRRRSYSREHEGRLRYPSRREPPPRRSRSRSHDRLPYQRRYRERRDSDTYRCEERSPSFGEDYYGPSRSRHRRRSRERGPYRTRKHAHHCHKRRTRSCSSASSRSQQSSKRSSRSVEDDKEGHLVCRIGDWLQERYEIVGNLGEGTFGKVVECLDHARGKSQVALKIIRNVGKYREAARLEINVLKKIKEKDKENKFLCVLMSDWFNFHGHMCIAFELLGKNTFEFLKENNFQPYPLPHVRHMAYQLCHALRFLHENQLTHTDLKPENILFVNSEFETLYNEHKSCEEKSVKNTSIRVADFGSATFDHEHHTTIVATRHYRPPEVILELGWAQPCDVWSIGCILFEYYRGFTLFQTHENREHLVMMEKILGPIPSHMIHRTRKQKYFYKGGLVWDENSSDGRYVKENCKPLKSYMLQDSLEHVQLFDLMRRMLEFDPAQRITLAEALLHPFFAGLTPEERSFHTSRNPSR

SMILES | EC50 (CLK2 kinase) | EC50 (CLK3 kinase) | EC50 [1] | Emax [1] | EC50 [2]
CC(C)Nc1cncc(-c2cc3c(-c4cc5c(-c6cccnc6)ccnc5[nH]4)n[nH]c3cn2)c1 [compound 363] | 0.008 µM | 9.84 µM | 10 nM | 77% | > 10 µM
CC(C)Nc1cncc(-c2ccc3[nH]nc(-c4cc5c(-c6cccnc6)ccnc5[nH]4)c3n2)c1 [compound 364] | 0.01 µM | 0.139 µM | – | 47.2% | 0.255 µM
CCNCc1cncc(-c2ccc3[nH]nc(-c4cc5c(-c6cccnc6)ccnc5[nH]4)c3c2)c1 [compound 365] | 0.013 µM | 0.443 µM | – | 28.7% | > 10 µM
CCNCc1cncc(-c2cnc3[nH]nc(-c4cc5c(-c6cccnc6)ccnc5[nH]4)c3c2)c1 [compound 366] | 0.004 µM | 0.074 µM | 10 nM | 91.8% | > 10 µM
CN(C)Cc1cncc(-c2ccc3[nH]nc(-c4cc5c(-c6cccnc6)cccc5[nH]4)c3n2)c1 [compound 368] | 0.004 µM | 0.102 µM | – | 35.9% | 0.415 µM
c1cncc(-c2ccnc3[nH]c(-c4n[nH]c5cnc(-c6cncc(CN7CCCC7)c6)cc45)cc23)c1 [compound 369] | 0.009 µM | 0.102 µM | – | 16.7% | > 10 µM
FC1(F)CCN(Cc2cncc(-c3ccc4[nH]nc(-c5cc6c(-c7cccnc7)ccnc6[nH]5)c4c3)c2)C1 [compound 370] | 0.006 µM | 0.101 µM | – | 20.3% | 0.523 µM
FC1(F)CCN(Cc2cncc(-c3ccc4[nH]nc(-c5cc6c(-c7cccnc7)cncc6[nH]5)c4n3)c2)C1 [compound 371] | 0.011 µM | 0.408 µM | – | 23.3% | 3.85 µM
c1cncc(-c2ccnc3[nH]c(-c4n[nH]c5ncc(-c6cncc(CN7CCCCC7)c6)cc45)cc23)c1 [compound 372] | 0.002 µM | 0.069 µM | – | 43.9% | > 10 µM
c1cncc(-c2cncc3[nH]c(-c4n[nH]c5ncc(-c6cncnc6)cc45)cc23)c1 [compound 373] | 0.004 µM | 0.156 µM | – | 24.1% | > 10 µM
c1cncc(-c2ccnc3[nH]c(-c4n[nH]c5cnc(-c6cncnc6)cc45)cc23)c1 [compound 374] | 0.019 µM | 9.84 µM | – | 49.6% | > 10 µM
Cn1cc(-c2ccc3[nH]nc(-c4cc5c(-c6cccnc6)cncc5[nH]4)c3c2)cn1 [compound 375] | 0.006 µM | 0.1 µM | – | 65.2% | 0.25 µM
Nc1cncc(-c2ccc3[nH]nc(-c4cc5c(-c6ccncc6)nccc5[nH]4)c3c2)c1 [compound 377] | 0.007 µM | 0.113 µM | – | 76.8% | 0.658 µM
Nc1cncc(-c2cnc3[nH]nc(-c4cc5c(-c6ccncc6)nccc5[nH]4)c3c2)c1 [compound 378] | 0.002 µM | 0.05 µM | 30 nM | 53.5% | > 10 µM
Nc1cncc(-c2cnc3[nH]nc(-c4cc5c(-c6ccncc6)cncc5[nH]4)c3c2)c1 [compound 379] | 0.004 µM | 0.069 µM | – | 31.5% | > 10 µM
Nc1cncc(-c2ccc3[nH]nc(-c4cc5c(-c6ccncc6)ccnc5[nH]4)c3n2)c1 [compound 382] | 0.004 µM | 0.063 µM | – | 26.9% | > 10 µM
CCCC(=O)Nc1cncc(-c2ccc3[nH]nc(-c4cc5c(-c6ccncc6)cncc5[nH]4)c3c2)c1 [compound 383] | 0.003 µM | 0.046 µM | – | 124% | > 10 µM

SMILES | EC50 (CLK2 kinase) | EC50 (CLK3 kinase) | EC50 [1] | Emax [1] | EC50 [2]
CC(C)C(=O)Nc1cncc(-c2cc3c(-c4cc5c(-c6ccncc6)nccc5[nH]4)n[nH]c3cn2)c1 [compound 385] | 0.012 µM | 0.389 µM | – | 32.1% | > 10 µM
CCCCC(=O)Nc1cncc(-c2cnc3[nH]nc(-c4cc5c(-c6ccncc6)cncc5[nH]4)c3c2)c1 [compound 386] | 0.008 µM | 0.201 µM | – | 70.4% | > 10 µM
CC(C)CC(=O)Nc1cncc(-c2ccc3[nH]nc(-c4cc5c(-c6ccncc6)nccc5[nH]4)c3c2)c1 [compound 387] | 0.005 µM | 0.132 µM | – | 95.5% | > 10 µM
CC(C)CC(=O)Nc1cncc(-c2ccc3[nH]nc(-c4cc5c(-c6ccncc6)cncc5[nH]4)c3c2)c1 [compound 388] | 0.004 µM | 0.029 µM | – | 70.2% | 0.875 µM
CC(C)CC(=O)Nc1cncc(-c2cnc3[nH]nc(-c4cc5c(-c6ccncc6)cccc5[nH]4)c3c2)c1 [compound 389] | 0.009 µM | 9.91 µM | 30 nM | 71.4% | 0.711 µM
CC(C)(C)C(=O)Nc1cncc(-c2ccc3[nH]nc(-c4cc5c(-c6ccncc6)ccnc5[nH]4)c3c2)c1 [compound 390] | 0.011 µM | 0.137 µM | – | 44.4% | > 10 µM
CC(C)(C)C(=O)Nc1cncc(-c2cnc3[nH]nc(-c4cc5c(-c6ccncc6)cncc5[nH]4)c3c2)c1 [compound 391] | 0.004 µM | 0.062 µM | – | 33.6% | > 10 µM
CC(C)(C)C(=O)Nc1cncc(-c2cc3c(-c4cc5c(-c6ccncc6)cncc5[nH]4)n[nH]c3cn2)c1 [compound 392] | 0.009 µM | 0.092 µM | – | 30.4% | > 10 µM
O=C(Nc1cncc(-c2ccc3[nH]nc(-c4cc5c(-c6ccncc6)nccc5[nH]4)c3c2)c1)C1CCCC1 [compound 395] | 0.005 µM | 0.03 µM | – | 114% | > 10 µM
CN(C)Cc1cncc(-c2ccc3[nH]nc(-c4cc5c(-c6ccncc6)cncc5[nH]4)c3c2)c1 [compound 398] | 0.003 µM | 0.056 µM | – | 17.8% | 1.05 µM
CN(C)Cc1cncc(-c2cc3c(-c4cc5c(-c6ccncc6)cncc5[nH]4)n[nH]c3cn2)c1 [compound 399] | 0.004 µM | 0.188 µM | 30 nM | 51.7% | > 10 µM
CN(C)Cc1cncc(-c2cc3c(-c4cc5c(-c6ccncc6)ccnc5[nH]4)n[nH]c3cn2)c1 [compound 400] | 0.012 µM | 0.18 µM | – | 33.4% | > 10 µM
FC1(F)CCN(Cc2cncc(-c3cnc4[nH]nc(-c5cc6c(-c7ccncc7)cccc6[nH]5)c4c3)c2)C1 [compound 401] | 0.015 µM | 0.895 µM | – | 29.2% | 0.708 µM
FC1(F)CCN(Cc2cncc(-c3cnc4[nH]nc(-c5cc6c(-c7ccncc7)cncc6[nH]5)c4c3)c2)C1 [compound 402] | 0.005 µM | 0.11 µM | – | 36.5% | 1.51 µM
c1cc(-c2cncc3[nH]c(-c4n[nH]c5ccc(-c6cncc(CN7CCCCC7)c6)nc45)cc23)ccn1 [compound 403] | 0.006 µM | 0.306 µM | 10 nM | 97.1% | > 10 µM
Cc1ncc(-c2cnc3[nH]nc(-c4cc5c(-c6ccncc6)cncc5[nH]4)c3c2)n1C [compound 406] | 0.003 µM | 0.227 µM | – | 194% | > 10 µM
